Here are results for four compounds from patent US20120283298A1, “METHODS FOR TREATING MEMORY IMPAIRMENT” (priority 2009, published 2012).

“Also recorded” adds a separate entry of the source.

Data set [1] relates to SAMP8 mice. In words: T-maze acquisition and retention after chronic i.p. administration. The settings on record: for mean trials to first avoidance versus vehicle (learning): day 21. It counts as in vivo, mouse. On the procedure:
T-Maze testing. The T-maze avoidance apparatus, training and testing procedures were as previously described in Example 1. […] Dosing range for i.p. administration (0.2-200 μg) was extrapolated from previous i.c.v. administration data as described in Example 1 above. Respective doses were given once a day over a period of 28 days. Learning and memory was assessed by the T-maze model. Learning evaluations were conducted at three weeks of treatment (day 21), while memory was assessed after one additional week of treatment (day 28). […] At the end of the evaluations mice were decapitated and the brains flash frozen and stored at −80° C. for subsequent analyses.

Data set [2] relates to SAMP8 mice. Put plainly: T-maze foot-shock avoidance acquisition after acute i.c.v. injection. The data set is classed as in vivo, mouse. An excerpt: T-Maze Testing. The T-maze avoidance apparatus training and testing procedures have been previously described, and shown as an effective means to assess learning in SAMP8 mice (Flood and Morley, 1993; Farr et al., 2000). […] Octreotide is a primarily SSTR2 agonist, of the SRIF-1 family, serving as an additional control set. Forty-eight hours prior to testing, the mice were anesthetized with 2,2,2-tribromoethanol, placed in a stereotaxic instrument, and the scalp was deflected. A unilateral hole was drilled 0.5 mm anterior and 1.0 mm to the right of the bregma. […] This time frame is consistent with work by others showing somatostatin administration over 24 hrs decreased Aβ1-42 concentrations in the brain (Saito et al., 2005). […] Twenty-four hours following drug administration mice were evaluated using the T-maze test.
The T-maze consisted of a black plastic alley with a start box at one end and two goal boxes at the other. The start box was separated from the alley by a plastic guillotine door, which prevented movement down the alley until training began. An electrifiable stainless steel rod floor ran throughout the maze to deliver scrambled foot-shock. Mice were trained and tested between 07:00 and 15:00 h. Mice were not permitted to explore the maze prior to training. A block of training trials began when a mouse was placed into the start box. The guillotine door was raised and a buzzer sounded simultaneously; 5 s later foot-shock was applied. The goal box entered on the first trial was designated “incorrect” and the foot-shock was continued until the mouse entered the other goal box, which in all subsequent trials was designated as “correct” for the particular mouse. At the end of the acquisition trial, mice were decapitated and the brains flash frozen and stored at −80° C. for subsequent analyses.

The next data set has as its system Aβ42. In words: ELISA analysis of Aβ42 in brain tissue ex vivo. Also on record: species or system mouse. On the procedure:
Brain levels of Aβ42 were evaluated ex vivo, from flash frozen whole brain tissue following respective behavioral analyses, using ultra-centrifugation and solid phase extraction methods (Lanz and Schachter, 2006; Zupa-Fernandez et al., 2007), coupled with Enzyme-linked immunosorbent assay (ELISA) analysis. Half of the brain tissue was dedicated to Western blot examinations with remainder used for Aβ42 evaluation. Brain tissue was homogenized and incubated with 1 mL 50 mM NaCl, 0.4% DEA, pH=10, containing protease inhibitor (Roche, Indianapolis, Ind.). Samples were kept on ice for 20 min, followed by sonication at 30% for 30 sec. Samples were then incubated at room temperature (3 h) followed by centrifugation at 355,000×g for 30 min (4° C.). Supernatant was collected for extraction using Oasis HLB 3 cc columns (Waters, Milford, Mass.). Oasis columns were activated with 2 mL methanol (MeOH), followed by 2 mL diH2O. Brain homogenates were loaded in 1 mL increments. Samples were then washed sequentially with 1 mL volumes of 5% and 30% MeOH, then eluted with 1 mL 2% NH4OH in 90% MeOH. Eluted samples were collected and vacuum-centrifuged at 1400 rpm, 60° C. for 90-120 min. Once samples were dried completely, they were stored at −80° C. until assay. Samples were reconstituted and analyzed in duplicate according to ELISA assay directions (Beta-Mark Aβx-42, Covance, Dedham, Mass.) via luminometer (Lumistar Optima, BMG Labtech, Durham, N.C.). Aβ42 levels were calculated from linear-regression curve in pg/ml and then set to gram weight of brain tissue and normalized to respective controls.
Evaluation of Aβ. Brain levels of Aβ42 were evaluated ex vivo as described above in Example 1.

Another data set deals with SSTR4, APP, and NEP. In words: Western blot expression of SSTR4, APP and NEP in brain tissue ex vivo. Also on record: species or system mouse. On the procedure:
Protein expression of brain tissues was evaluated ex vivo, from flash frozen whole brain tissue following respective behavioral analyses, by Western blot analyses for SSTR4, APP and NEP. Tissues were homogenized in RIPA buffer containing protease inhibitor (Roche) using a 1:10 ratio (0.5 g=5 ml), transferred into tubes and spun at 10,000×g for 20 min (4° C.). The supernatant was taken and a protein assay was used to determine the amount of protein present. Samples (100 μg) were separated using an electrophoretic field on Biorad (Bio-Rad, Hercules, Calif.) Tris HCl gels (10%) at 175 V for 70 min following heating at 95° C. for 5 min. GelCode Blue Stain (Pierce, Rockford, Ill.) was used to confirm appropriate protein loading. The proteins were then transferred to nitrocellulose membranes with 240 mA at for 45 min (4° C.). The membranes were then blocked using 5% nonfat milk-Tris-buffered saline (20 mM Tris base, 137 mM NaCl, pH 7.6) with 0.1% Tween-20 for 4 h and then incubated overnight at 4° C. with primary antibodies (1:1,000-1:2,000 dilution) in PBS-0.5% BSA. Antibodies shown effective: SSTR4 (Sigma-Aldrich), NEP (Millipore, Billerica, Mass.), and APP (Millipore). The membranes were then washed with 5% nonfat milk-Tris-buffered saline buffer before incubation with the respective secondary antibody at a 1:2,000 dilution (in PBS-0.5% BSA) for 60 min at room temperature. Blots were developed using the enhanced chemiluminescence method (ECL+; Amersham Life Science Products; Springfield, Ill.), and protein bands visualized on X-ray film. Optical densities were measured by densitometer (Biorad) and evaluated against respective controls. After each initial protein expression assessment, membranes were then stripped and re-probed with actin (Sigma-Aldrich).
Protein expression in brain tissues was evaluated ex vivo as described above in Example 1.
For orientation: A western blot detects proteins with antibodies after separation by electrophoresis.

The subject of data set [3] is SAMP8 mice. Put plainly: Object-recognition task after i.c.v. injection. It counts as in vivo, mouse. The note with it: 0.2 μg i.c.v., 48 h after injection. On the procedure:
Object-recognition is a non-spatial memory recognition task, shown to be effective in SAMP8 mice (Bevins and Besheer, 2006; Fontan-Lozano et al., 2008). In this task, treated and control mice are measured as to the difference in time spent with a familiar (or remembered) object and a novel object. Mice received a single optimized dose (0.2 μg) determined from T-maze assessment, against vehicle control (0 μg). Dosing was performed 24 h prior to the initial training period and the recognition task was evaluated 24 h after training (i.e. 48 h after dosing). Mice were habituated to an empty apparatus (55×40×40 cm) for 5 min a day for 3 days prior to entry of the objects. On the day of training two similar objects were placed in the maze. Mice were placed in the maze and allowed to explore the objects for 5 min. In the 24-h retention test, one of the same objects is placed in the maze, as well as a new object in a new location. The difference in percent time spent exploring the new object over the familiar object was then determined. The criteria for exploration were based strictly on active exploration, where the mouse had both forelimbs within a circle of 1.5 cm around the object, with its head oriented toward it, or when touching it with its vibrissae. At the end of the retention trial, mice were decapitated and the brains flash frozen and stored at −80° C. for subsequent analyses.

The subject of a further data set is APPswe transgenic mice. Put plainly: T-maze avoidance learning acquisition in APPswe transgenic mice after i.c.v. injection. The data set is classed as in vivo, mouse. The note with it: 0.2 μg i.c.v. An excerpt: The APPswe transgenic mouse carries a transgene coding for the 695-amino acid isoform of human Alzheimer A R precursor protein. (K. Hsiao et al., 274 Science 99-102, 1996). These mice express high concentrations of the mutant AR , with significant amyloid plaques, and display memory deficits. At 11-13 months of age they show a 14-fold increase in AR (1-42/43) over those at 2-8 months of age. Elevated AR levels are associated with the development of amyloid deposits in frontal, temporal and entorhinal cortex, hippocampus, presubiculum, and cerebellum, with some mice developing the signature cross pattern of deposits seen inhuman AD. […] Thus APPswe transgenic mice are also a good model for studying APP expression, amyloid plaque formation, neuronal decline, and memory loss associated with AD, and for studying drug candidates for treatment or prevention of AD. APPswe (Tg2576) mice, and non-transgenic siblings as controls, were obtained from Taconic (New York). All other materials and methods were as described for Example 1.
AAPswe transgenic mice were administered 0.2 μg of NNC 26-91001.c.v. after a 2 hour fasting period, followed by an additional hour of fasting after administration. Animals were tested using the T-maze model as described above in Example 1.

Data set [4] can be described thus: Body weight and behaviour during chronic i.p. dosing. It counts as in vivo, mouse. The settings on record: SAMP8 mice, i.p. 0.2-200 μg once a day, 28 days.
Setting [5] is: 0.2 μg i.c.v., after object-recognition task.

Consider `S=C(NCCCc1c[nH]cn1)N(CCc1c[nH]c2ccccc12)Cc1cccc(Cl)c1Cl` [LIU 686-06A], for which the “mean trials to first avoidance versus vehicle (learning)” value in the data set on SAMP8 mice [1] (i.p. 0.2 μg daily) is recorded as “significantly lower number of mean trials to first avoidance”. For the same compound, the “mean trials to criterion versus vehicle” value in the data set with SAMP8 mice [1] (i.p. 20 μg daily, day 21 as printed) is recorded as “significantly lower number of mean trials to first criterion”.
For the compound `S=C(NCCCc1c[nH]cn1)NCCCN(Cc1ccc(Cl)c(Cl)c1)c1ccc(Br)cn1` [NNC 26-9100], the “mean trials to first avoidance versus NNC 26-9100 alone” value in the data set on SAMP8 mice [2] (0.2 μg i.c.v. co-administered with 1 mM phosphoramidon, p<0.05) was “significant increase in the number of mean trials to first avoidance”; in the data set with SAMP8 mice [2] (0.2 μg i.c.v. co-administered with 10 mM phosphoramidon, p<0.01), “significant increase in the number of mean trials to first avoidance”. In the data set with SAMP8 mice [2] (0.2 μg i.c.v. co-administered with 10 mM phosphoramidon), the “trials to first avoidance versus NNC 26-9100+1 mM phosphoramidon” value is on record as “significantly higher number of trials to first avoidance”. For the same compound, the “learned avoidance (mean trials to first avoidance) compared to vehicle” value in the data set with SAMP8 mice [2] (SAMP8 mice, i.c.v., 0.2 μg, T-maze 24 h after injection) was “significant improvement; also recorded: significantly lower number of mean trials to first avoidance”. Moreover, in the data set on Aβ42 (0.2 μg i.c.v. + 10 mM phosphoramidon, post-T-maze), the “Aβ42 versus NNC 26-9100 alone group” value is “significant increase”. For the same compound, the Aβ42 versus vehicle entry in the data set with Aβ42 (setting [5]) was “no significant change”; in the data set with Aβ42 (chronic i.p. 20 μg daily, 28 days), “significant decrease”; in the data set on Aβ42 (chronic i.p., any other dose (0.2-200 μg range)) it was “no significant changes”. Also, the “decrease in Aβ42 compared to vehicle” value in the data set with Aβ42 (SAMP8 brain, post-T-maze, i.c.v., all doses 0.002-2.0 μg) is around 20%. For the same compound, the “SSTR4, APP, or NEP expression, NNC 26-9100 alone, co-administered phosphoramidon, and versus vehicle alone” value in the data set on SSTR4, APP, and NEP (0.2 μg i.c.v., +1 mM or +10 mM phosphoramidon) is “No changes”. The “expression of SSTR4, APP, or NEP versus vehicle” value in the data set with SSTR4, APP, and NEP (setting [5]) is listed as “No significant changes”; with SSTR4, APP, and NEP (chronic i.p., any dose (0.2-200 μg daily), 28 days), “No significant changes”. Besides, the “expression of SSTR4, APP, or NEP compared to vehicle” value with SSTR4, APP, and NEP (SAMP8 brain, i.c.v., 0.002-2.0 μg) is “no significant changes”. The “enhancement in recognition memory (time with novel object) versus vehicle” value in the data set on SAMP8 mice [3] is recorded as “approximately 2 fold”. For the same compound, the “mean trials to first avoidance versus vehicle (learning)” value with SAMP8 mice [1] (i.p. 20 μg daily) and in the data set with SAMP8 mice [1] (i.p. 200 μg daily) was “significantly lower number of mean trials to first avoidance” in each case. Moreover, the “mean trials to criterion versus vehicle (memory)” value with SAMP8 mice [1] (i.p. 20 μg daily, day 28, p<0.01) is listed as “significantly lower mean trials to criterion”; with SAMP8 mice [1] (i.p. 200 μg daily, day 28, p<0.05), “significantly lower mean trials to criterion”. Also, the avoidance learning acquisition entry with APPswe transgenic mice is recorded as “effects in AAPswe transgenic mice similar to those obtained in SAMP8 mice”. Further, in data set [4], the “weight loss or abnormal behaviors” value is listed as “no animals in the study exhibiting weight loss or abnormal behaviors”.
As to `C[C@@H](O)[C@@H]1NC(=O)[C@H](CCCCN)NC(=O)[C@@H](Cc2c[nH]c3ccccc23)NC(=O)[C@H](Cc2ccccc2)NC(=O)[C@@H](NC(=O)[C@H](N)Cc2ccccc2)CSSC[C@@H](C(=O)N[C@H](CO)[C@@H](C)O)NC1=O` [octreotide, reference compound], the “learned acquisition compared to vehicle” value in the data set with SAMP8 mice [2] (SAMP8 mice, i.c.v., any dose 0.002-2.0 μg) is listed as “no significant effects”.
For the compound `CC(C)C[C@H](NP(=O)(O)O[C@@H]1O[C@@H](C)[C@H](O)[C@@H](O)[C@H]1O)C(=O)N[C@@H](Cc1c[nH]c2ccccc12)C(=O)O` [phosphoramidon, reference compound], the “mean trials to first avoidance, vehicle versus vehicle combined with phosphoramidon” value with SAMP8 mice [2] (any dose of phosphoramidon (1 or 10 mM), i.c.v.) is reported as “No significant change”. Also, the “Aβ42 within vehicle groups (vehicle alone, +1 mM or +10 mM phosphoramidon)” value in the data set with Aβ42 (i.c.v., post-T-maze) was “No change”.
